Experimental data taken from the NIST ThermoML archive (doi:10.1016/j.tca.2009.10.001).
Numbers after ± are expanded uncertainties.

Tests used:
[1] = Liquid; for viscosity: Capillary tube (Ostwald / Ubbelohde) method; for speed of sound: Linear variable-path acoustic interferometer; for mass density: Pycnometric method
[2] = xn = mol fraction of the nth substance listed; conditions: 101 kPa, Liquid, x1 = 1; for viscosity: Capillary tube (Ostwald / Ubbelohde) method; for speed of sound: Linear variable-path acoustic interferometer; for mass density: Pycnometric method

Compound | viscosity ([1]; 298.15 K, 101.33 kPa) | speed of sound ([1]; 298.15 K, 101.33 kPa) | mass density ([1]; 298.15 K, 101.33 kPa) | viscosity ([1]; 303.15 K, 101.33 kPa) | speed of sound ([1]; 303.15 K, 101.33 kPa) | mass density ([1]; 303.15 K, 101.33 kPa) | viscosity ([1]; 308.15 K, 101.33 kPa) | speed of sound ([1]; 308.15 K, 101.33 kPa) | mass density ([1]; 308.15 K, 101.33 kPa) | viscosity ([2]; 298.15 K) | speed of sound ([2]; 298.15 K) | mass density ([2]; 298.15 K) | viscosity ([2]; 303.15 K) | speed of sound ([2]; 303.15 K) | mass density ([2]; 303.15 K) | viscosity ([2]; 308.15 K) | speed of sound ([2]; 308.15 K) | mass density ([2]; 308.15 K) | further results
CC#N [acetonitrile] | 0.3696 ± 0.0053 mPa·s | 1271.3 ± 1.8 m/s | 775.3 ± 0.3 kg/m3 | 0.3554 ± 0.0052 mPa·s | 1251.9 ± 1.8 m/s | 769.9 ± 0.3 kg/m3 | 0.3414 ± 0.0052 mPa·s | 1231.7 ± 1.7 m/s | 764.7 ± 0.4 kg/m3 | – | – | – | – | – | – | – | – | – | –
CCCC#N [butanenitrile] | 0.5463 ± 0.0061 mPa·s | 1271.4 ± 1.8 m/s | 784.7 ± 0.3 kg/m3 | 0.5255 ± 0.006 mPa·s | 1252.2 ± 1.8 m/s | 780.3 ± 0.4 kg/m3 | 0.5049 ± 0.0059 mPa·s | 1233.9 ± 1.7 m/s | 775.9 ± 0.4 kg/m3 | – | – | – | – | – | – | – | – | – | –
CCC#N [propanenitrile] | 0.4107 ± 0.0055 mPa·s | 1252.4 ± 1.8 m/s | 775.4 ± 0.3 kg/m3 | 0.3991 ± 0.0054 mPa·s | 1232.7 ± 1.7 m/s | 769.9 ± 0.3 kg/m3 | 0.3822 ± 0.0053 mPa·s | 1213.7 ± 1.7 m/s | 765.2 ± 0.4 kg/m3 | – | – | – | – | – | – | – | – | – | –
Cc1ccccc1 [toluene] | – | – | – | – | – | – | – | – | – | – | – | – | – | – | – | – | – | – | viscosity ([1]; 298.15 K, 101 kPa): 0.5635 ± 0.0056 mPa·s; speed of sound ([1]; 298.15 K, 101 kPa): 1299.8 ± 1.5 m/s; mass density ([1]; 298.15 K, 101 kPa): 860.9 ± 0.3 kg/m3; viscosity ([1]; 303.15 K, 101 kPa): 0.5344 ± 0.0055 mPa·s; speed of sound ([1]; 303.15 K, 101 kPa): 1279.5 ± 1.5 m/s; mass density ([1]; 303.15 K, 101 kPa): 856 ± 0.3 kg/m3; viscosity ([1]; 308.15 K, 101 kPa): 0.5091 ± 0.0054 mPa·s; speed of sound ([1]; 308.15 K, 101 kPa): 1260.7 ± 1.5 m/s; mass density ([1]; 308.15 K, 101 kPa): 851.6 ± 0.3 kg/m3
Cc1ccccc1 [toluene] + CC#N | – | – | – | – | – | – | – | – | – | 0.5635 ± 0.0056 mPa·s | 1299.8 ± 1.5 m/s | 860.9 ± 0.3 kg/m3 | 0.5344 ± 0.0055 mPa·s | 1279.5 ± 1.5 m/s | 856 ± 0.3 kg/m3 | 0.5091 ± 0.0054 mPa·s | 1260.7 ± 1.5 m/s | 851.6 ± 0.3 kg/m3 | –
Cc1ccccc1 [toluene] + CCC#N | – | – | – | – | – | – | – | – | – | 0.5635 ± 0.0056 mPa·s | 1299.8 ± 1.5 m/s | 860.9 ± 0.3 kg/m3 | 0.5344 ± 0.0055 mPa·s | 1279.5 ± 1.5 m/s | 856 ± 0.3 kg/m3 | 0.5091 ± 0.0054 mPa·s | 1260.7 ± 1.5 m/s | 851.6 ± 0.3 kg/m3 | –
Cc1ccccc1 [toluene] + CCCC#N | – | – | – | – | – | – | – | – | – | 0.5635 ± 0.0056 mPa·s | 1299.8 ± 1.5 m/s | 860.9 ± 0.3 kg/m3 | 0.5344 ± 0.0055 mPa·s | 1279.5 ± 1.5 m/s | 856 ± 0.3 kg/m3 | 0.5091 ± 0.0054 mPa·s | 1260.7 ± 1.5 m/s | 851.6 ± 0.3 kg/m3 | –
